In article PMC10408569, “Recruitment of hexahydroquinoline as anticancer scaffold targeting inhibition of wild and mutants EGFR (EGFR^WT, EGFR^T790M, and EGFR^L858R)” (Journal of Enzyme Inhibition and Medicinal Chemistry, 2023):

What was measured:
Assay in all cases: NCI-60 anticancer screening (SRB)
Format in all cases: cell-based
CCRF-CEM = settings: Homo sapiens, leukemia, one dose 10 μM, read-out: Growth Inhibition Percentage (GI %)
HL-60(TB) = settings: Homo sapiens, leukemia, one dose 10 μM, read-out: Growth Inhibition Percentage (GI %)
K-562 = settings: Homo sapiens, K562; K-562, leukemia; one dose 10 μM; read-out: Growth Inhibition Percentage (GI %)
SR = settings: Homo sapiens, leukemia, one dose 10 μM, read-out: Growth Inhibition Percentage (GI %)
NCI-H226 = settings: Homo sapiens; NCI-H226, NSC lung cancer; one dose 10 μM; read-out: Growth Inhibition Percentage (GI %)
NCI-H322M = settings: Homo sapiens, NSC lung cancer, one dose 10 μM, read-out: Growth Inhibition Percentage (GI %)
COLO 205 = settings: Homo sapiens; COLO 205, colon cancer; one dose 10 μM; read-out: Growth Inhibition Percentage (GI %)
HCT-116 = settings: Homo sapiens; HCT-116, colon cancer; one dose 10 μM; read-out: Growth Inhibition Percentage (GI %)
HCT-15 = settings: Homo sapiens; HCT-15, colon cancer; one dose 10 μM; read-out: Growth Inhibition Percentage (GI %)
KM 12 = settings: Homo sapiens, KM12; KM 12, colon cancer; one dose 10 μM; read-out: Growth Inhibition Percentage (GI %)
SW-620 = settings: Homo sapiens; SW-620, colon cancer; one dose 10 μM; read-out: Growth Inhibition Percentage (GI %)
SF-268 = settings: Homo sapiens; SF-268, CNS cancer; one dose 10 μM; read-out: Growth Inhibition Percentage (GI %)
SNB-75 = settings: Homo sapiens; SNB-75, CNS cancer; one dose 10 μM; read-out: Growth Inhibition Percentage (GI %)
U251 = settings: Homo sapiens, U-251; U251, CNS cancer; one dose 10 μM; read-out: Growth Inhibition Percentage (GI %)
LOX IMVI = settings: Homo sapiens, melanoma, one dose 10 μM, read-out: Growth Inhibition Percentage (GI %)
M14 = settings: Homo sapiens; M14, melanoma; one dose 10 μM; read-out: Growth Inhibition Percentage (GI %)
SK-MEL-2 = settings: Homo sapiens; SK-MEL-2, melanoma; one dose 10 μM; read-out: Growth Inhibition Percentage (GI %)
UACC-257 = settings: Homo sapiens; UACC-257, melanoma; one dose 10 μM; read-out: Growth Inhibition Percentage (GI %)
IGROV1 = settings: Homo sapiens, IGROV-1; IGROV1, ovarian cancer; one dose 10 μM; read-out: Growth Inhibition Percentage (GI %)
OVCAR-5 = settings: Homo sapiens; OVCAR-5, ovarian cancer; one dose 10 μM; read-out: Growth Inhibition Percentage (GI %)
NCI/ADR-RES = settings: Homo sapiens, ovarian cancer, one dose 10 μM, read-out: Growth Inhibition Percentage (GI %)
SK-OV-3 = settings: Homo sapiens; SK-OV-3, ovarian cancer; one dose 10 μM; read-out: Growth Inhibition Percentage (GI %)
786-0 = settings: Homo sapiens; 786-0, renal cancer; one dose 10 μM; read-out: Growth Inhibition Percentage (GI %)
A498 = settings: Homo sapiens; A498, renal cancer; one dose 10 μM; read-out: Growth Inhibition Percentage (GI %)
RXF 393 = settings: Homo sapiens; RXF 393, renal cancer; one dose 10 μM; read-out: Growth Inhibition Percentage (GI %)
TK-10 = settings: Homo sapiens; TK-10, renal cancer; one dose 10 μM; read-out: Growth Inhibition Percentage (GI %)
PC-3 = settings: Homo sapiens; PC-3, prostate cancer; one dose 10 μM; read-out: Growth Inhibition Percentage (GI %)
MCF7 = settings: Homo sapiens; MCF7, breast cancer; one dose 10 μM; read-out: Growth Inhibition Percentage (GI %)
MDA-MB-231 = settings: Homo sapiens; MDA-MB-231, breast cancer; one dose 10 μM; read-out: Growth Inhibition Percentage (GI %)
BT-549 = settings: Homo sapiens; BT-549, breast cancer; one dose 10 μM; read-out: Growth Inhibition Percentage (GI %)
T-47D = settings: Homo sapiens, T47D, breast cancer, one dose 10 μM, read-out: Growth Inhibition Percentage (GI %)
MDA-MB-468 = settings: Homo sapiens; MDA-MB-468, breast cancer; one dose 10 μM; read-out: Growth Inhibition Percentage (GI %)

SMILES | inhibition at 10 µM (CCRF-CEM) [%] | inhibition at 10 µM (HL-60(TB)) [%] | inhibition at 10 µM (K-562) [%] | inhibition at 10 µM (SR) [%] | inhibition at 10 µM (NCI-H226) [%] | inhibition at 10 µM (NCI-H322M) [%] | inhibition at 10 µM (COLO 205) [%] | inhibition at 10 µM (HCT-116) [%] | inhibition at 10 µM (HCT-15) [%] | inhibition at 10 µM (KM 12) [%] | inhibition at 10 µM (SW-620) [%] | inhibition at 10 µM (SF-268) [%] | inhibition at 10 µM (SNB-75) [%] | inhibition at 10 µM (U251) [%] | inhibition at 10 µM (LOX IMVI) [%] | inhibition at 10 µM (M14) [%] | inhibition at 10 µM (SK-MEL-2) [%] | inhibition at 10 µM (UACC-257) [%] | inhibition at 10 µM (IGROV1) [%] | inhibition at 10 µM (OVCAR-5) [%] | also measured
CCOC(=O)C1=C(N)N(c2ccc(C)cc2)C2=C(C(=O)CC(C)(C)C2)C1c1ccccc1Cl (racemic) [6b, (±)-Ethyl 2-amino-4–(2-chlorophenyl)-7,7-dimethyl-1–(4-methylphenyl)-5-oxo-1,4,5,6,7,8-hexahydroquinoline-3-carboxylate] | < 10 | < 10 | < 10 | < 10 | < 10 | < 10 | 19 | 17 | 30 | < 10 | 19 | < 10 | 29 | < 10 | < 10 | < 10 | < 10 | < 10 | < 10 | < 10 | inhibition at 10 µM (NCI/ADR-RES): < 10%; inhibition at 10 µM (SK-OV-3): < 10%; inhibition at 10 µM (786-0): < 10%; inhibition at 10 µM (A498): < 10%; inhibition at 10 µM (RXF 393): < 10%; inhibition at 10 µM (TK-10): < 10%; inhibition at 10 µM (PC-3): 43%; inhibition at 10 µM (MCF7): 32%; inhibition at 10 µM (MDA-MB-231): < 10%; inhibition at 10 µM (BT-549): 11%; inhibition at 10 µM (T-47D): 21%; inhibition at 10 µM (MDA-MB-468): 20%
CCOC(=O)C1=C(N)N(c2ccccc2)C2=C(C(=O)CC(C)(C)C2)C1c1ccccc1OC (racemic) [6g, (±)-Ethyl 2-amino-4–(2-methoxyphenyl)-7,7-dimethyl-5-oxo-1-phenyl-1,4,5,6,7,8-hexahydroquinoline-3-carboxylate] | < 10 | < 10 | < 10 | < 10 | < 10 | < 10 | < 10 | < 10 | < 10 | < 10 | < 10 | < 10 | < 10 | < 10 | < 10 | < 10 | < 10 | < 10 | < 10 | < 10 | inhibition at 10 µM (NCI/ADR-RES): < 10%; inhibition at 10 µM (SK-OV-3): < 10%; inhibition at 10 µM (786-0): < 10%; inhibition at 10 µM (A498): < 10%; inhibition at 10 µM (RXF 393): < 10%; inhibition at 10 µM (TK-10): < 10%; inhibition at 10 µM (PC-3): 11%; inhibition at 10 µM (MCF7): < 10%; inhibition at 10 µM (MDA-MB-231): < 10%; inhibition at 10 µM (BT-549): < 10%; inhibition at 10 µM (T-47D): < 10%; inhibition at 10 µM (MDA-MB-468): 11%
CCOC(=O)C1=C(N)N(c2ccc(C)cc2)C2=C(C(=O)CC(C)(C)C2)C1c1ccccc1OC (racemic) [6h, (±)-Ethyl 2-amino-4–(2-methoxyphenyl)-7,7-dimethyl-1–(4-methylphenyl)-5-oxo-1,4,5,6,7,8-hexahydroquinoline-3-carboxylate] | < 10 | < 10 | < 10 | < 10 | < 10 | < 10 | < 10 | < 10 | < 10 | < 10 | < 10 | < 10 | < 10 | < 10 | < 10 | < 10 | < 10 | < 10 | < 10 | < 10 | inhibition at 10 µM (NCI/ADR-RES): < 10%; inhibition at 10 µM (SK-OV-3): < 10%; inhibition at 10 µM (786-0): < 10%; inhibition at 10 µM (A498): < 10%; inhibition at 10 µM (RXF 393): < 10%; inhibition at 10 µM (TK-10): < 10%; inhibition at 10 µM (PC-3): < 10%; inhibition at 10 µM (MCF7): < 10%; inhibition at 10 µM (MDA-MB-231): < 10%; inhibition at 10 µM (BT-549): < 10%; inhibition at 10 µM (T-47D): < 10%; inhibition at 10 µM (MDA-MB-468): < 10%
